Measurements: patent US20250049735A1, “MEDICINE FOR STEATOHEPATITIS” (The University of Tokyo, priority 2021, published 2025)
Read-outs that look alike come from different tables or passages of the source.

System: Tax-iIEC-KO mice
Conditions: for concentration of betaine in the liver / concentration of choline in the liver: compared with control mice
Source text: Atp8b1^flox/flox mice were mated with villin-Cre/ERT2 transgenic mice (Stock No. 020282; The Jackson Laboratory), and Atp8b1^flox/+; villin-Cre/ERT2 mice in the obtained offsprings were then mated with Atp8b1^flox/flox mice to obtain Tamoxifen-induced, intestinal epithelial cell (IEC)-specific Atp8b1 knockout (Atp8b1Tax-iIEC-KO: Atp8b1^flox/flox; villin-Cre/ERT2) mice (Atp8b1 Tax-iIEC-KO mice). The resulting Atp8b1 Tax-iIEC-KO mice and littermate Atp8b1^flox/flox mice were used for animal experiments.
ALT and AST were determined by automatic measurement with Dri-chem (FUJIFILM, Tokyo, Japan).
The liver was cut into small pieces, was then fixed with 10% neutral buffered formalin, and was then embedded in paraffin. The small intestine was rinsed with PBS, was fixed with 10% neutral buffered formalin, was then cut into 2 segments (corresponding to the proximal side and the distal side), and was then opened longitudinally. The thus cut small intestine was opened with a toothpick, was immobilized with a pathological pin, was then fixed with 10% neutral buffered formalin, and was then embedded in paraffin. Paraffin sections (3 μm each) were prepared, and were then deparaffinized and rehydrated. Thereafter, the resulting paraffin sections were stained with hemotoxylin and eosin, and were then mounted in Entellan new (Merck, Branchburg, NJ).
The concentrations of choline, betaine, dimethylglycine (N,N-dimethylglycine) and glycerophosphorylcholine (sn-glycero-3-phosphocholine) in plasma were determined by liquid chromatography/tandem mass spectrometry (LC/MS/MS) assay. The sample was mixed with 98-fold volume of ethanol and 1-fold volume of the internal standard (IS) solution (10 μmol/L choline in water, 10 μmol/L glycerophosphorylcholine in water, and 1 μmol/L betaine in water). After vortex mixing, the sample was centrifuged at 21,500×g at 4° C. for 5 minutes. The obtained supernatant was injected into a UHPLC Nexera liquid chromatography system (Shimadzu co., Kyoto, Japan) equipped with an Ascentis Express HILIC column (2.1×50 mm, 2.7 μm, Merck KGaA, Darmstadt, Germany), and was then maintained at 4° C. The analyte was separated from the internal standard by gradient elution of mobile phase A (10 mmol/L ammonium acetate in water) and of mobile phase B (acetonitrile/water mixture) (99:1, v/v)). The gradient elution was carried out under the following conditions: 0-2 min., 82.5% B; 2-4 min., 82.5% to 5% B and 4-7 min. 5% B with a flow rate of 0.6 mL/min. The eluate was directly subjected to electrospray ionization under a positive ion mode using a 5500QTRAP mass spectrometer (Sciex pte. ltd., Toronto, Canada). All target molecules were scanned by selected reaction monitoring (SRM) mode.
Eight-week-old Tax-iIEC-KO mice and control mice were started to be fed with a control diet, a 0.3% choline supplemented diet, or a 1% choline supplemented diet, and at the same time, the Tax-iIEC-KO mice and the control mice were administered with 1 mg/day of Tamoxifen for 5 consecutive days. Thereafter, the mice were dissected at 10 weeks of age.

[1] = 0.3% choline supplemented diet, 8 to 10 weeks of age
[2] = choline supplemented diet (0.3% or 1%) from 8 to 10 weeks of age, Tamoxifen 1 mg/day for 5 days

`C[N+](C)(C)CCO` [choline] was tested, and the “increase in liver injury markers (AST and ALT)” value [1] was “suppressed”, the “onset of steatohepatitis (liver pathological images)” value [1] was “suppressed” and the “concentration of betaine in the liver” value (0.3% choline supplemented diet) was “recovered”. The “concentration of choline in the liver” value (0.3% choline supplemented diet) was “recovered”, the “increase in liver injury markers (AST and ALT)” value (1% choline supplemented diet, 8 to 10 weeks of age) was “suppressed” and the “concentration of betaine in the liver” value (1% choline supplemented diet) was “recovered”. The “concentration of choline in the liver” value (1% choline supplemented diet) was “recovered”, the body weight [2] was “not changed” and the small intestine length [2] was “not changed”.
